What was measured:
[1] = molecular target: recombinant CYP-17 (Homo sapiens (Human), UniProt P05093); experiment: Cyp17 assay protocol (3H-acetic acid release from [21-3H] 17α-hydroxyl-Pregnenolone); type: cell-based; conditions: AD293 cells over-expressing recombinant CYP-17
Experimental: Cyp17 assay protocol: AD293 cells that stably over-express recombinant CYP-17 were seeded in 96 well plates coated with poly D-lysine (15,000 cell per well) and incubated at 37° C. for 24 hours in Dulbecco's Modified Eagle Medium (DMEM) with Fetal Bovine Serum (FBS) that is stripped of hormones by charcoal treatment. The media is then removed, the cells are washed once with Phosphate buffer saline solution, and 50 μL Dulbecco's Modified Eagle Medium (DMEM) with Fetal Bovine Serum (FBS) that is stripped of hormones by charcoal treatment is added. Compounds of the disclosure are then added to the wells in eight concentration spanning 10 μM to 4.5 nM, and the plates are incubated for an additional 60 minutes at 37° C. [21-^3H] 17α-hydroxyl-Pregnenolone is then added (50 nCi per well, 31.25 nM) and the plates are incubated for an additional 4 hours at 37° C. The media is then collected, 200 μL of chloroform is added, and the mixture is shaken for 1 hour. The aqueous layer is then separated and analyzed for the presence of ^3H-acetic acid using a Perkin Elmer Topcount NXT to determine IC50s of the compounds of the disclosure.

[2] = molecular target: recombinant CYP-11 (Homo sapiens (Human), UniProt P15538); experiment: Cyp11 assay protocol (cortisol formation from 11-deoxycortisol, LC/MS); type: cell-based; conditions: AD293 cells over-expressing recombinant CYP-11
Experimental: (§1) Cyp11 assay protocol: AD293 cells that stably over-express recombinant CYP-11 were seeded in 96 well plates coated with poly D-lysine (15,000 cell per well) and incubated at 37° C. for 24 hours in Dulbecco's Modified Eagle Medium (DMEM) with Fetal Bovine Serum (FBS) that is stripped of hormones by charcoal treatment. The media is then removed, the cells are washed once with Phosphate buffer saline solution, and 50 μL Dulbecco's Modified Eagle Medium (DMEM) with Fetal Bovine Serum (FBS) that is stripped of hormones by charcoal treatment is added. Compounds of the disclosure are then added to the wells in eight concentration spanning 10 μM to 4.5 nM, and the plates are incubated for an additional 60 minutes at 37° C. 11-deoxycortisol is then added (2.0 μM) and the plates are incubated for an additional 12 hours at 37° C. After incubation, 50 uL of the supernatant (medium) is transferred into a fresh plate and 150 uL of an acetonitrile solution containing 200 ng/ml of Telmisartan is added.

[3] = molecular target: recombinant CYP-21 (Homo sapiens (Human), UniProt P08686); experiment: Cyp21 assay protocol (11-deoxycortisol formation from 17α-OH Progesterone, LC/MS); type: cell-based; conditions: AD293 cells over-expressing recombinant CYP-21
Experimental: as §1, with “Cyp21” for “Cyp11”, “CYP-21” for “CYP-11”, “(10,000” for “(15,000”, “17α-OH Progesterone” for “11-deoxycortisol”, “(1.0” for “(2.0”, “45 minutes” for “12 hours”

[4] = Pharmacokinetic study in the guinea pig, 10 mg/kg oral dosing; type: in vivo; design: DNAUC(0-inf): unit not given beside the values; conditions: for DNAUC(0-inf): dose-normalised AUC; for AUC(0-inf) / Cmax / half-life / AUC / MRT: in vivo; for AUC: read-out: AUC0_last; for MRT: read-out: MRT0_last
Experimental: Pharmacokinetic studies in the guinea pig were run using 1 mg/kg IV dosing (20% DMA, 40% TEG, 40% water) and 10 mg/kg oral dosing (2% Tween-80, 98% HPMC (1% water)).

recombinant CYP-11, sequence (P15538 25-503): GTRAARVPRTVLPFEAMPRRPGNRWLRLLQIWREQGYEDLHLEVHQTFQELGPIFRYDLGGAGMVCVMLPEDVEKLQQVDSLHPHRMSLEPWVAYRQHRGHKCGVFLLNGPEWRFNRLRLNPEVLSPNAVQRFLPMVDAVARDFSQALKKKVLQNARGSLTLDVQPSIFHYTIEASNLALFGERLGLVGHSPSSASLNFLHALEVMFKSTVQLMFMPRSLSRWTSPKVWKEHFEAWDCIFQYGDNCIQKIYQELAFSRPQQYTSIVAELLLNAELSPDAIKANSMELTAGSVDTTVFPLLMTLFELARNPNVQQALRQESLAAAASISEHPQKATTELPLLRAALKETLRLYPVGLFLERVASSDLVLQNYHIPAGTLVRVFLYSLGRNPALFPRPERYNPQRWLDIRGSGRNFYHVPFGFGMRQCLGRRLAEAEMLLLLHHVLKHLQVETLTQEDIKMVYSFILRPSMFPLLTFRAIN
recombinant CYP-21, sequence (P08686 whole entry, species assumed): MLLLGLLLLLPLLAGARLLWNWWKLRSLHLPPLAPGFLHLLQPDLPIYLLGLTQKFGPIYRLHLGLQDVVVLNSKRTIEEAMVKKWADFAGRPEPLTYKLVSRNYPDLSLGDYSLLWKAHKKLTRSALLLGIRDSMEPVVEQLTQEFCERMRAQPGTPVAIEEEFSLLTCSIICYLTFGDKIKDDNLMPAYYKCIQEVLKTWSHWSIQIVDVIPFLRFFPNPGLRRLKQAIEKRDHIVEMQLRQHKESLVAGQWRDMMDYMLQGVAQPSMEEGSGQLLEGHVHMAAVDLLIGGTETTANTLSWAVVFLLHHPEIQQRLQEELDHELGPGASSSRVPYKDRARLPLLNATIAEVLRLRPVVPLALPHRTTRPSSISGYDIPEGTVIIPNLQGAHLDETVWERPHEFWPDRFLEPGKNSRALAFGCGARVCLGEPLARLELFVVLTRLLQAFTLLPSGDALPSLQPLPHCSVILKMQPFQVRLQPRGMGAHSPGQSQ
recombinant CYP-17, sequence (P05093 whole entry, species assumed): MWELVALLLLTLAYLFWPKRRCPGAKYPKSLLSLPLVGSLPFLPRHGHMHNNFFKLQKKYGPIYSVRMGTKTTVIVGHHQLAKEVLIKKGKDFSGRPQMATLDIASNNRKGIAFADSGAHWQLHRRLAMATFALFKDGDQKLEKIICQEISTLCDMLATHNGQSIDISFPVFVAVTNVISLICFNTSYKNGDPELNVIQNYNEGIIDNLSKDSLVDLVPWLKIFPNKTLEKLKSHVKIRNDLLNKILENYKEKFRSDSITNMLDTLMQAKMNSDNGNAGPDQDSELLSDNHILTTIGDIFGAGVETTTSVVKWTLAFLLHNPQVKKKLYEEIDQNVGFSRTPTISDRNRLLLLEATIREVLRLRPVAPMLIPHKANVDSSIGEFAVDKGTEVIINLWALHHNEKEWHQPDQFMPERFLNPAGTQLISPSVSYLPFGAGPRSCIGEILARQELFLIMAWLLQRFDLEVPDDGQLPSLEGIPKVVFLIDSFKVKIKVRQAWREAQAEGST

SMILES | IC50 [1] | IC50 [2] | IC50 [3] | further results
O=S(=O)(N1CCN(c2ccc(/C=C/c3cc(F)cc(-c4ccncc4)c3)cc2)CC1)C(F)(F)F [Example 39] | 5 nM | 1500 nM | 316 nM | 
CC(=O)N1CCN(c2ccc(/C=C/c3cc(Cl)cc(Cc4cccnc4)c3)cc2)CC1 [Example 28] | 35 nM | 180 nM |  | 
O=S(=O)(C1CC1)N1CCN(c2ccc(/C=C/c3cc(F)cc(-c4ccncc4)c3)cc2)CC1 [Example 35] | 5 nM | 140 nM | 393 nM | 
CC(=O)N1CCN(c2ccc(/C=C/c3cc(F)cc(-c4ccncc4)c3)cc2)CC1 |  |  |  | AUCExtra [4]: 43.93%; DNAUC(0-inf) [4]: 823.1; AUC(0-inf) [4]: 14900 ng·h/mL; Cmax [4]: 1020 ng/mL; half-life [4]: 360 min; AUC [4]: 8230 ng·h/mL; MRT [4]: 5.56 h
CCS(=O)(=O)N1CCN(c2ccc(/C=C/c3cc(F)cc(-c4ccncc4)c3)cc2)CC1 [Example 36] | 5 nM | 200 nM | 520 nM | 
Fc1cc(CCc2ccc(-c3ccncc3)cc2)cc(-c2ccncc2)c1 [Example 37] | 190 nM |  | 490 nM | 
Fc1cc(/C=C/c2ccc(N3CCN(CC4CC4)CC3)cc2)cc(-c2ccncc2)c1 [Example 38] | 5 nM | 54 nM | 770 nM | 
CCOC(=O)CNC(=O)N1CCN(c2ccc(CCc3cc(F)cc(-c4ccncc4)c3)cc2)CC1 [Example 43] | 7 nM | 160 nM |  | 
CC(=O)N1CCN(c2ccc(/C=C/c3cc(Cl)cc(-c4ccncc4)c3)cc2)CC1 [Example 31] | 5 nM |  | 1100 nM | 
CCOC(=O)CNC(=O)N1CCN(c2ccc(/C=C/c3cc(Cl)cc(Cn4ccnc4)c3)cc2)CC1 [Example 20] | 41 nM | 27 nM | 360 nM | 
CC(=O)N1CCN(c2ccc(/C=C/c3cc(Cl)cc(-c4cccnc4)c3)cc2)CC1 [Example 32] | 620 nM |  |  | 
N#Cc1cccc(CN2CCN(c3ccc(/C=C/c4cc(Cl)cc(Cn5ccnc5)c4)cc3)CC2)c1 [Example 23] | 25 nM | 7 nM | 285 nM | 
O=S(=O)(N1CCN(c2ccc(CCc3cc(F)cc(-c4ccncc4)c3)cc2)CC1)C(F)(F)F [Example 45] | 16.5 nM | 183 nM | 2800 nM | 
N#Cc1cccc(C(=O)N2CCN(c3ccc(/C=C/c4cc(Cl)cc(Cn5ccnc5)c4)cc3)CC2)c1 [Example 18] | 22 nM | 4 nM |  | 
CC(=O)N1CCN(c2ccc(/C=C/c3cc(F)cc(-c4cccnc4)c3)cc2)CC1 [Example 27] | 610 nM |  |  | 
O=S(=O)(N1CCN(c2ccc(/C=C/c3cc(F)cc(-c4ccncc4)c3)cc2)CC1)C(F)(F)F [drawing 726] |  |  |  | AUCExtra [4]: 25.87%; DNAUC(0-inf) [4]: 164.6; AUC(0-inf) [4]: 2450 ng·h/mL; Cmax [4]: 271 ng/mL; half-life [4]: 318 min; AUC [4]: 1650 ng·h/mL; MRT [4]: 5.01 h
CCOC(=O)CNC(=O)N1CCN(c2ccc(/C=C/c3cc(F)cc(-c4ccncc4)c3)cc2)CC1 [Example 34] | 8 nM | 1300 nM | 1010 nM | 

Reference: patent publication US9725436B2, “Cytochrome P450 inhibitors and their method of use” (CORTENDO AB (PUBL), priority 2013, dated 2017)
